Where two headings read alike, the source gives them in different places.
Columns and labels:
DLD-BRCA2-Ve = experiment: MTT cytotoxicity assay, DLD-BRCA2-Ve; conditions: read-out: cytotoxicity IC50 DLD-BRCA2-Ve
Experimental: (§1) Cell lines and cytotoxicity assays: All cell lines were obtained from the American Type Culture Collection (ATCC) and cultured in the specified medium supplemented with 10% fetal bovine serum, 100 IU/mL penicillin, and 100 μg/mL streptomycin at 37° C. in a humidified 5% CO2/95% air incubator. […] To assess drug cytotoxicity, cells were seeded at 2,500 cells/well (10,000 cells/well for MM lines) in 100 μL medium in 96-well plate and after 24 treated with compounds for 72 h, incubated according to the manufacturer's protocol with the Thiazolyl Blue Tetrazolium Bromide (Sigma, M2128) and A570 measured using a Benchmark Plus microplate spectrophotometer (BIO-RAD). IC50 data was analyzed by Graphpad Prism software. In the chirality studies the cells were treated with compounds for 48 h, and the cells were incubated and measured via the preceeding protocols.

T22 = experiment: MTT cytotoxicity assay, T22; conditions: read-out: cytotoxicity IC50 T22, Tables 3A/4B/4C, BRCA2 + VE
HeLa = conditions: human
RPE1-ATMKO = experiment: MTT cytotoxicity assay, RPE1-ATMKO; conditions: read-out: cytotoxicity IC50 RPE1-ATMKO
Experimental: as §1

HEC-1A = experiment: MTT cytotoxicity assay, HEC-1A; conditions: read-out: cytotoxicity IC50 HEC-1A, Tables 3A/4B/4C
[1] = system: proteasome (4UbFL reporter); experiment: 4UbFL reporter in leg muscle of CD1 mice; type: in vivo
Experimental: Pilot safety studies were performed in CD1 mice (n=3/dose group of healthy female mice aged 6-8 weeks) with increasing single doses delivered i.p. and the NOAEL (no-observed-adverse-effect level) was selected for further animal studies. […] Bortezomib was dissolved in a minimal amount of DMSO and further diluted with saline before injection in a dose finding study. […] To measure on-target inhibition of proteasome activity in mice, a leg muscle of CD-1 mice was transduced with the 4UbFL reporter construct. […] Briefly, mouse leg muscle was electroporated with 4UbFL plasmid and basal bioluminescence was measured after 24 hr using IVIS200 imager after injecting luciferin substrate. Mice were randomized (n=5/group) and treated with compounds in PEG400: Cremophor: Tween40 combination or vehicle alone as shown in Table 5 with one dose delivered by intraperitoneal injection. The mice were again imaged at 4 h, 24 h, 48 h post treatment.

ID8-VegfDefb29 tumor = experiment: in vivo; type: in vivo, C57BL/6 mice
Experimental: To assess therapeutic efficacy the ID8-VegfDefb29 cell line was utilized in a syngeneic mouse model of ovarian cancer expressing luciferase (62). ID8 was first derived from spontaneous malignant transformation of C57BL/6 mouse ovarian surface epithelial cells in vitro (69). ID8-Vegf Defb29 cells represent a more aggressive variant of ovarian cancer in which VEGF provides vascular growth which is augmented by the presence of DEFB29 (62). C57BL/6 mice were injected i.p. with ID8-VegfDefb29 cells stably expressing firefly luciferase (0.5×10^6 cells) in PBS (100 μL). After 72 hrs, mice were imaged for their basal luminescence levels using an IVIS200 imager. Mice with visible luminescence were randomized into equal groups including vehicle (n=8), RA414 (3 mg/Kg, n=8), RA414 (10 mg/Kg, n=8) and treated every three days for up to 3 weeks. Mice were imaged every week to measure bioluminescence expressed by tumor after administration of luciferin. […] On day 24 two mice were sacrificed after collection of ascites, and the remainder required euthanasia on day 31 (FIGS. 17A and 17B). Administration of RA414 at 10 mg/kg (3 doses delivered every three days) regressed the tumor completely in 50% of the mice with less than 10% weight loss. […] This is consistent with proteasome inhibition within the ascites cells by the […] RA414 treatment regimen.
Tumor Studies: Female C57BL6 or Nude mice were inoculated with 10^6 ES2-Luciferase cells i.p. in 100 uL PBC, or ID8-VegfDefb29 syngeneic mouse model of ovarian cancer expressing luciferase (62) i.p. in 100 μL PBS. At day 3, mice were imaged for basal level luminescence activity with a Xenogen IVIS 200 after injection i.p. with luciferin (0.3 mg in 100 water). Mice were randomized into two groups (n=8) and treated i.p. with compounds or vehicle (25% (w/v) β-Hydroxypropylcyclodextrin in water), and imaged again on days 7 and 14. RA375 was administered i.p. at 10 mg/Kg.

in vitro = conditions: human
Experimental: as §1

A2780 = conditions: human
PEO1 = experiment: cells; conditions: Homo sapiens, PEO1, read-out: cytotoxicity IC50 PEO1
Experimental: as §1

UWB1.289 = experiment: MTT cytotoxicity assay, UWB1.289; conditions: UWB1289, read-out: cytotoxicity IC50 UWB1.289
Experimental: as §1

[2] = Repeat dose MTD in healthy female CD1 mice; conditions: mouse, in vivo, 3 repeated doses every third day
Text: The starting doses were based on previous studies with RA183. Doses were escalated incrementally in steps of not more than 50%. When either of these endpoints was met, dose escalation was halted and the prior dose was set as the MTD.

SSC90 = experiment: MTT cytotoxicity assay, SSC90
Mouse Skin Keratinocytes = experiment: MTT cytotoxicity assay, mouse skin keratinocytes; type: cell-based; conditions: Keratinocyte, read-out: IC50 Keratinocytes
Experimental: (§2) Cell lines and cytotoxicity assays: All cell lines were obtained from the American Type Culture Collection (ATCC) and cultured in the specified medium supplemented with 10% fetal bovine serum, 100 IU/mL penicillin, and 100 μg/mL streptomycin at 37° C. in a humidified 5% CO2/95% air incubator. […] To assess drug cytotoxicity, cells were seeded at 2,500 cells/well (10,000 cells/well for MM lines) in 100 μL medium in 96-well plate and after 24 treated with compounds for 72 h, incubated according to the manufacturer's protocol with the Thiazolyl Blue Tetrazolium Bromide (Sigma, M2128) and A570 measured using a Benchmark Plus microplate spectrophotometer (BIO-RAD). IC50 data was analyzed by Graphpad Prism software.

ANBL6-V10R = experiment: MTT cytotoxicity assay, ANBL6-V10R; type: cell-based; conditions: read-out: IC50 ANBL6-V10R
Experimental: (§3) The cytotoxic efficacy of selected compounds was assessed against multiple myeloma (MM) cell lines, as this is a validated clinical target for the licensed proteasome inhibitors.
as §2

RPMI8226 = experiment: MTT cytotoxicity assay, RPMI8226; type: cell-based; conditions: Homo sapiens, read-out: IC50 RPMI8226
Experimental: as §3, §2

MDA-MB231 = experiment: MTT cytotoxicity assay, MDA-MB231; type: cell-based; conditions: Homo sapiens, read-out: IC50 MDA-MB231
Experimental: as §2

RPMI8226-V10R = experiment: MTT cytotoxicity assay, RPMI8226-V10R; type: cell-based; conditions: read-out: IC50 RPMI8226-V10R
Experimental: as §3, §2

MCF7 = experiment: MTT cytotoxicity assay, MCF7; conditions: read-out: cytotoxicity IC50 MCF7, Tables 3A/4B/4C
VU93 = experiment: MTT cytotoxicity assay, VU93; conditions: read-out: cytotoxicity IC50 VU93, Tables 3A/4B/4C
[3] = read-out: cytotoxicity IC50 SSC90, Tables 3A/4B/4C, MTT assay
[4] = Table 3, MTT, 48 hr, normal Mouse Skin
[5] = Table 3, MTT, 48 hr, Multiple Myeloma, bortezomib resistant
[6] = 3 mg/Kg, 9 doses delivered every three days

Compound	IC50 (DLD-BRCA2-Ve)	IC50 (T22)	IC50 (HeLa)	IC50 (RPE1-ATMKO)	IC50 (HEC-1A)	IC50 (in vitro)	IC50 (A2780)	IC50 (PEO1)	IC50 (UWB1.289)	MTD [2]	IC50 (SSC90; [3])	IC50 (Mouse Skin Keratinocytes; [4])	IC50 (ANBL6-V10R; 48 h)	IC50 (RPMI8226; RPMI-8226, 48 h)	IC50 (MDA-MB231; MDA-MB-231, 48 h)	IC50 (Mouse Skin Keratinocytes; Mus musculus, 48 h)	IC50 (RPMI8226-V10R; 48 h)	IC50 (MCF7)	IC50 (VU93)	also measured
C[C@H]1/C(=C\c2ccc([N+](=O)[O-])cc2)C(=O)/C(=C/c2ccc([N+](=O)[O-])cc2)CN1C(=O)[C@@H](N)Cc1ccccc1	55 nM	1360 nM	23 nM	24 nM	207 nM	41 nM	20 nM	31 nM	43.9 nM	20 mg/kg										fold increased bioluminescence (4UbFL, leg muscle) ([1]; CD1 mice, 30 mg/kg i.p., PEG400: Cremophor: Tween40, at 4 h and 24 h): 4-6 fold; fold increased bioluminescence (4UbFL, leg muscle) ([1]; mouse, in vivo, ip, 30 mg/kg): 14-22 fold; tumor burden compared to vehicle (ID8-VegfDefb29 tumor; 15 mg/Kg every 3 days, total 5 doses, day 17, p<0.0001): significant decrease in tumor burden
CC(C)C[C@H](NC(=O)[C@H](Cc1ccccc1)NC(=O)c1cnccn1)B(O)O [Bortezomib, bortezomib, reference compound]					153 nM			31 nM			15 nM	> 100 nM								
N[C@@H](Cc1ccccc1)C(=O)N1C/C(=C\c2ccc([N+](=O)[O-])cc2)C(=O)/C(=C/c2ccc([N+](=O)[O-])cc2)C1 [RA183, reference compound]					378 nM								103 nM	88 nM	124 nM	> 1000 nM	139 nM			
N[C@@H](Cc1ccccc1)C(=O)N1C/C(=C\c2ccc(Cl)c(Cl)c2)C(=O)/C(=C/c2ccc(Cl)c(Cl)c2)C1 [RA190, reference compound]		16300 nM			431 nM			232 nM			625 nM	> 1000 nM						750 nM	625 nM	IC50 (ANBL6-V10R; [5]): 55 nM; IC50 (RPMI8226; RPMI-8226, Table 3, MTT, 48 hr, Multiple Myeloma): 45 nM; IC50 (MDA-MB231; MDA-MB-231, Table 3, MTT, 48 hr, Triple Negative Breast): 134 nM; IC50 (RPMI8226-V10R; [5]): 47 nM
O=C(CCl)N[C@@H](Cc1ccccc1)C(=O)N1C/C(=C\c2ccc([N+](=O)[O-])cc2)C(=O)/C(=C/c2ccc([N+](=O)[O-])cc2)C1 [RA375]	18 nM		13 nM			41 nM	37 nM	27 nM					16 nM	9 nM	22 nM	> 1000 nM	6 nM			IC50 (SSC90; read-out: IC50 SSC90): 24 nM
CC1/C(=C\c2ccc([N+](=O)[O-])cc2)C(=O)/C(=C/c2ccc([N+](=O)[O-])cc2)CN1C(=O)[C@H](Cc1ccccc1)NC(=O)CCl (some centres unmarked) [RA414]	< 40 nM			< 40 nM	196 nM			30 nM	< 20 nM	10 mg/kg	< 20 nM							75 nM	40 nM	duration of on-target activity (4UbFL, leg muscle) ([1]; CD1 mice, 3 mg/kg i.p., PEG system): on-target activity over 72 hr similar to bortezomib; tolerability (ID8-VegfDefb29 tumor; [6]): well tolerated; tumor growth (ID8-VegfDefb29 tumor; [6]): inhibited tumor growth; mice with tumor regressed completely (ID8-VegfDefb29 tumor; 10 mg/kg, 3 doses delivered every three days): 50%; mice that did not tolerate the dose (>10% weight loss) or died (ID8-VegfDefb29 tumor; 10 mg/kg, 3 doses delivered every three days, tumor-bearing mice): 50%
